Measured values taken from patent publication US8822517B2, “Arylosulfonamides for the treatment of CNS diseases” (Adamed SP. Z O.O., priority 2010, dated 2014).

Tests used:
[1] = target: T1, serotonine transporter (SERT) receptor (Homo sapiens, UniProt P31645); assay: Binding assay SERT (h), [3H]imipramine, CHO cells; conditions: read-out: SERT [%]
T1 construct: expressed in transfected cells; host or cells: CHO cells
Outline: (§1)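 At 1×10^−6 M, compounds were assessed for their effect on specific radioligand binding, computed as total less nonspecific binding (excess unlabelled ligand present).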

[2] = target: serotoninergic 5-HT2A receptor (Homo sapiens, UniProt P28223); assay: Binding assay 5-HT2A (h), [3H]ketanserin, HEK-293 cells; design: expressed in transfected cells; host or cells: HEK-293 cells; conditions: read-out: 5-HT2A
Outline: as §1

adrenergic α2C receptor = target: T2, adrenergic α2C receptor (Homo sapiens, UniProt P18825); assay: Binding assay α2C (h), [3H]RX 821002, CHO cells; design: expressed in transfected cells; host or cells: CHO cells; conditions: read-out: α2C [%]
T2 sequence (P18825 1-462): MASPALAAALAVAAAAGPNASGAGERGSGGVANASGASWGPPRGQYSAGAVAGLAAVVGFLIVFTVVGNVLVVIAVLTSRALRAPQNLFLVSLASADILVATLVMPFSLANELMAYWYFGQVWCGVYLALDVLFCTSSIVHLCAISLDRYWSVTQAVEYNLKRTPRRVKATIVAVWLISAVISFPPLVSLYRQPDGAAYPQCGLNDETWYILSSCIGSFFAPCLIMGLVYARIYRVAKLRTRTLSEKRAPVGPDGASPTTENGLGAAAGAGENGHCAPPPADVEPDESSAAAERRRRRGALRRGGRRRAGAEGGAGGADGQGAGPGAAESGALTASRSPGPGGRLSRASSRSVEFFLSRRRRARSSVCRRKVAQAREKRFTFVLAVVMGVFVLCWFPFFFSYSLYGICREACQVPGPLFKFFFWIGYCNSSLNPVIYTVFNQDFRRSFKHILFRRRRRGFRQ
Procedure: (§2) The specific ligand binding to the receptors is defined as the difference between the total binding and the nonspecific binding determined in the presence of an excess of so unlabelled ligand.
(§3) The specific Ligand binding to the receptor is defined as the difference between total and non-specific binding determined in the presence of an excess of unlabelled ligand. The compounds were tested at a concentration of 1×10^−6 M, and scintillation counting was the method of detection of ligand binding.

[3] = target: serotoninergic 5-HT6 receptor (Homo sapiens, UniProt P50406); assay: Binding assay 5-HT6 (h), [3H]LSD, CHO cells; design: expressed in transfected cells; host or cells: CHO cells; conditions: read-out: 5-HT6
Outline: as §1

[4] = target: T3, serotoninergic 5-HT1A receptor (Homo sapiens, UniProt P08908); assay: Binding assay 5-HT1A (h), [3H]8-OH-DPAT, HEK-293 cells; design: expressed in transfected cells; host or cells: HEK-293 cells; conditions: read-out: 5-HT1A
T3 sequence (P08908 1-422): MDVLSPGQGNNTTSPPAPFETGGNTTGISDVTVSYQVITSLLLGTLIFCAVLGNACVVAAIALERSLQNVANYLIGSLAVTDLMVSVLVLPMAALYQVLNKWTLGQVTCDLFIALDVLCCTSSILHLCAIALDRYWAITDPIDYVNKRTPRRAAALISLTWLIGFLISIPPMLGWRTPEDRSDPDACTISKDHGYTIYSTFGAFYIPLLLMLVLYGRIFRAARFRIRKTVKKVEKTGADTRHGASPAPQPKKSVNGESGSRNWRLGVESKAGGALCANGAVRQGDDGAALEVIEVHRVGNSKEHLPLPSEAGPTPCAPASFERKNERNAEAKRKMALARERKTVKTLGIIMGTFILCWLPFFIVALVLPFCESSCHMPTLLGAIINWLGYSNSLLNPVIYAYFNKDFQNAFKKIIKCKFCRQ
Outline: as §1

dopaminergic D2 receptor = dopaminergic D2 receptor (Homo sapiens, UniProt P14416); assay: Binding assay D2S (h), [3H]methyl-spiperone, HEK-293 cells; design: expressed in transfected cells; host or cells: HEK-293 cells; conditions: read-out: D2 [%]
Outline: as §1

adrenergic α1 receptor = assay: Binding assay α1 (non-selective), [3H]prazosin, rat cerebral cortex; conditions: percent inhibition of control specific binding; compounds tested at 1×10^−6 M
Outline: as §1

sigma σ receptor = assay: Binding assay σ (non-selective), [3H]DTG, rat cerebral cortex; conditions: percent inhibition of control specific binding; compounds tested at 1×10^−6 M
Procedure: as §2, §3

[5] = target: T4, serotoninergic receptor 5-HT2C (Homo sapiens, UniProt P28335); assay: Binding assay 5-HT2C (h), [3H]mesulergine, HEK-293 cells; conditions: read-out: 5-HT2C [%]
T4 construct: expressed in transfected cells; host or cells: HEK-293 cells
T4 sequence (P28335 33-458): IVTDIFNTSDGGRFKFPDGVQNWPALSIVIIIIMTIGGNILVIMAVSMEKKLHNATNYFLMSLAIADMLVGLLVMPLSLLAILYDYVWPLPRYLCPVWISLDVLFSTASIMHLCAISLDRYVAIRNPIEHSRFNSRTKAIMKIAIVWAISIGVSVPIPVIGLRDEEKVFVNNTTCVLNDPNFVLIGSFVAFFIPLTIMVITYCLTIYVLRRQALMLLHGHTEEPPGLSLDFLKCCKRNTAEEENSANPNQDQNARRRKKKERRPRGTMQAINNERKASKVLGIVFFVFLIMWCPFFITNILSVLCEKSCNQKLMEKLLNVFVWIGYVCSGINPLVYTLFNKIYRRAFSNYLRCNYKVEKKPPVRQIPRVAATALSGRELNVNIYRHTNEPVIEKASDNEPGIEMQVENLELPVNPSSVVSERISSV
Procedure: as §2, §3

dopaminergic D3 receptor = dopaminergic D3 receptor (Homo sapiens, UniProt P35462); assay: Binding assay D3 (h), [3H]methyl-spiperone, CHO cells; design: expressed in transfected cells; host or cells: CHO cells; conditions: read-out: D3 [%]
Outline: as §1

[6] = target: histaminergic H1 receptor (Homo sapiens, UniProt P35367); assay: Binding assay H1 (h), [3H]pyrilamine, HEK-293 cells; design: expressed in transfected cells; host or cells: HEK-293 cells; conditions: read-out: H1 [%]
Procedure: as §2, §3

[7] = target: serotoninergic 5-HT7 receptor (Homo sapiens, UniProt P34969); assay: Binding assay 5-HT7 (h), [3H]LSD, CHO cells; design: expressed in transfected cells; host or cells: CHO cells; conditions: read-out: 5-HT7
Outline: as §1

muscarinic M3 receptor = target: T5, muscarinic M3 receptor (Homo sapiens, UniProt P20309); assay: Binding assay M3 (h), [3H]4-DAMP, CHO cells; conditions: read-out: M3 [%]
T5 construct: expressed in transfected cells; host or cells: CHO cells
Procedure: as §2, §3

serotoninergic 5-HT7 receptor, sequence (P34969 whole entry): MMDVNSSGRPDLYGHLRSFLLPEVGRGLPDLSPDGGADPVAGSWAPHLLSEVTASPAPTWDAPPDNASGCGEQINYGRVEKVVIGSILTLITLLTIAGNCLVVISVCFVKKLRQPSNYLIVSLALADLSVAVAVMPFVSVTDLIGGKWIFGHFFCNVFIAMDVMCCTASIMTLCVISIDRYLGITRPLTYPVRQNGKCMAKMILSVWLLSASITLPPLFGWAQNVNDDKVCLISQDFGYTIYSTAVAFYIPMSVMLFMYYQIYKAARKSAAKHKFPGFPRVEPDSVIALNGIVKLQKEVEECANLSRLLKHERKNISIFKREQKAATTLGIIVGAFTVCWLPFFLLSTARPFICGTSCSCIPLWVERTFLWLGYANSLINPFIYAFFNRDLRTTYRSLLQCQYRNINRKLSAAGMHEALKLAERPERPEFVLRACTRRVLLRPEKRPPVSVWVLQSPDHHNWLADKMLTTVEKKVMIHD
dopaminergic D2 receptor, sequence (P14416 1-414 isoform P14416-2): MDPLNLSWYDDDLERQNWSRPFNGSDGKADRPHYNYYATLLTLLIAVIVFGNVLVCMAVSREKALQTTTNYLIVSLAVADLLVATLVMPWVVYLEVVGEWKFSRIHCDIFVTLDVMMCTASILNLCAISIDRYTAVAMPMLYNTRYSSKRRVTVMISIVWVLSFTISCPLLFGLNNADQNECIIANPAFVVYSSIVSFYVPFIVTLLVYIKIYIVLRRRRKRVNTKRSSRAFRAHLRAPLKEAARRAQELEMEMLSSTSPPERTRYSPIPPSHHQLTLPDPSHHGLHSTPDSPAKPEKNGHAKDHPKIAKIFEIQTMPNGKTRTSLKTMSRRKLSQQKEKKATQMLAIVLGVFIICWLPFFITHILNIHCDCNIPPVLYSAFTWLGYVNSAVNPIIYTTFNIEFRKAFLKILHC
serotoninergic 5-HT2A receptor, sequence (P28223 whole entry): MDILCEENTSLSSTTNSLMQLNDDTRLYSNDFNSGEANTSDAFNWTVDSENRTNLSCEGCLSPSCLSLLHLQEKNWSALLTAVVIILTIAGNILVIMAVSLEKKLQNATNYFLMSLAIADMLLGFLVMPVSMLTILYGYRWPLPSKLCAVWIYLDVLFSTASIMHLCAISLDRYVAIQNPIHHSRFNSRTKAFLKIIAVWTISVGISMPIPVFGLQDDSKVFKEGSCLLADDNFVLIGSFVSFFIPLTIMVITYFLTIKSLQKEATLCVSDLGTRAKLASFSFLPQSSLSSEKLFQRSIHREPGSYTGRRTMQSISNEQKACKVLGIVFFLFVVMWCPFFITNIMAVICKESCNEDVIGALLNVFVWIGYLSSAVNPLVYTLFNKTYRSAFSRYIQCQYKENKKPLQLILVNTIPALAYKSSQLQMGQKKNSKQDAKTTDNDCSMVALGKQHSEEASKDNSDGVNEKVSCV
T5 sequence (P20309 whole entry): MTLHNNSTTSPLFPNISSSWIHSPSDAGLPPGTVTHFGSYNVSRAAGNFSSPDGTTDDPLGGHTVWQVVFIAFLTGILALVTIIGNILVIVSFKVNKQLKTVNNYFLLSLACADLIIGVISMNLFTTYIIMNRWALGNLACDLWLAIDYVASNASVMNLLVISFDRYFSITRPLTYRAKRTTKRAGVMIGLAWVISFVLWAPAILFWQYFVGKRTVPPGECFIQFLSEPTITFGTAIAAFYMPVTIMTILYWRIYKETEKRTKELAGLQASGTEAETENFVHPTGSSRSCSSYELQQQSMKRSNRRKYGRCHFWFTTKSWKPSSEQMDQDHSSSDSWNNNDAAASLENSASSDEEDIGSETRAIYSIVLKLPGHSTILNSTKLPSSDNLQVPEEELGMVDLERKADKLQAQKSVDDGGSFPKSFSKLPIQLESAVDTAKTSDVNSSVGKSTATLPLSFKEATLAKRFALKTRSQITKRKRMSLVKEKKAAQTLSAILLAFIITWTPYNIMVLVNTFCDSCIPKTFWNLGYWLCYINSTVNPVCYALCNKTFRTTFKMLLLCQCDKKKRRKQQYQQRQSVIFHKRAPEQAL
serotoninergic 5-HT6 receptor, sequence (P50406 whole entry): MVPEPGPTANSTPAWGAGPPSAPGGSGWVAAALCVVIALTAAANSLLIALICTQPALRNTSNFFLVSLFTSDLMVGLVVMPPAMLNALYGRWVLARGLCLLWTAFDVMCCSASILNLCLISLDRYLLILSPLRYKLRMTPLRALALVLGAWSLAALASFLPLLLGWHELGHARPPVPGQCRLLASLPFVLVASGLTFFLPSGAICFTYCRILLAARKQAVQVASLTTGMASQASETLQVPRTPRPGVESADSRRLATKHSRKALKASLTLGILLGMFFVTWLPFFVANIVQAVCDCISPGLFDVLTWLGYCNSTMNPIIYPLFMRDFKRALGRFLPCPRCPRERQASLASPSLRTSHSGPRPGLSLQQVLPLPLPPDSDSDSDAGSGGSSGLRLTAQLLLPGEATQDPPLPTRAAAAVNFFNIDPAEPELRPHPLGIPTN
histaminergic H1 receptor, sequence (P35367 whole entry): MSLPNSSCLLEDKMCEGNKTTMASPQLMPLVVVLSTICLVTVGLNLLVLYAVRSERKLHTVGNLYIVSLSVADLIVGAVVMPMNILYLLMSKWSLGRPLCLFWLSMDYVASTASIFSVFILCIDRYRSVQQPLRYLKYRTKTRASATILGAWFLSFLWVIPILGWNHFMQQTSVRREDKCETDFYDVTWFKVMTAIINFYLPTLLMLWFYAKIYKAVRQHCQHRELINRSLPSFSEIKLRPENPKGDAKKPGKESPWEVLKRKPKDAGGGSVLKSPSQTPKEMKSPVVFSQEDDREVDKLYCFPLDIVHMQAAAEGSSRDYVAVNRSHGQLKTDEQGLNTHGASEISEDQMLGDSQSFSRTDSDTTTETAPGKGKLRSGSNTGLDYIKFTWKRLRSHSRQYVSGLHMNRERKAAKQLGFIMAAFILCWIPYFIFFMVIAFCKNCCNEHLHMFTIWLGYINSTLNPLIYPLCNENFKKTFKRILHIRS
T1 sequence (P31645 whole entry): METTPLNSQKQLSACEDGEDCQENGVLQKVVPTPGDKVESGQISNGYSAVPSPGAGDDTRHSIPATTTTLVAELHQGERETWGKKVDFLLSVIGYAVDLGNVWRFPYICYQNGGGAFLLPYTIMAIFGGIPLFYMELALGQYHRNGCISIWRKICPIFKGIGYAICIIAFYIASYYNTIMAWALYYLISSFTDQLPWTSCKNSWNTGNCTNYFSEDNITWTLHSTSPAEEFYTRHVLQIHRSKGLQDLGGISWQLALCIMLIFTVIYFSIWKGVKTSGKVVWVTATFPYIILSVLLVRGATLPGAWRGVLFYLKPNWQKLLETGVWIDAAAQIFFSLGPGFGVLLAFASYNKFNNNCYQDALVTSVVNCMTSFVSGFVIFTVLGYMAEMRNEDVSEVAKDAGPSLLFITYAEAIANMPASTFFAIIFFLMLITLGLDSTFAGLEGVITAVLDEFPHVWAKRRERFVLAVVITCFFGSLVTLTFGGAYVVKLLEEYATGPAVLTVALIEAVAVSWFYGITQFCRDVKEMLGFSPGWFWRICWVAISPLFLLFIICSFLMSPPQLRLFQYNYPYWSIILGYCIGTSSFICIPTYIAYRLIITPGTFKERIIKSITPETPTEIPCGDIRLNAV
dopaminergic D3 receptor, sequence (P35462 whole entry): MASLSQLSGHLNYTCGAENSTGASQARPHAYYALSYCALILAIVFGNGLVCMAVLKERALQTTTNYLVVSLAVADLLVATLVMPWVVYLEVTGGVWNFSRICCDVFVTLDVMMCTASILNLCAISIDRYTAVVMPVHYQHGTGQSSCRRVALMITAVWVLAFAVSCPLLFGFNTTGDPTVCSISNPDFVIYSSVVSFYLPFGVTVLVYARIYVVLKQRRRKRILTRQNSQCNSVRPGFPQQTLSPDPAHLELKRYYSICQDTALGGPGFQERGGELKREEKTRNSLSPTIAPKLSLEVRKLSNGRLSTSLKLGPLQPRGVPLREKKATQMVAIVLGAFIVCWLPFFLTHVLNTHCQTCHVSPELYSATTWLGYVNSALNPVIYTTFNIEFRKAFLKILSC

Row | SMILES | inhibition at 1 µM [1] | inhibition at 1 µM [2] | inhibition at 1 µM (adrenergic α2C receptor) | inhibition at 1 µM [3] | inhibition at 1 µM [4] | inhibition at 1 µM (dopaminergic D2 receptor) | α1 [%] (adrenergic α1 receptor) | σ [%] (sigma σ receptor) | inhibition at 1 µM [5] | inhibition at 1 µM (dopaminergic D3 receptor) | inhibition at 1 µM [6] | inhibition at 1 µM [7] | inhibition at 1 µM (muscarinic M3 receptor)
1 | O=S(=O)(NCCCCN1CCC(c2noc3cc(F)ccc23)CC1)c1ccc(F)c(F)c1 [Compound 295, 3,4-Difluoro-N-[4-[4-(6-fluoro-1,2-benzoxazol-3-yl)piperidin-1-yl]butyl]benzenesulphonamide] | 16% | 99% | 97% | 93% | 68% | 95% | 96% | 63% | 51% | 98% | 95% | 99% | 19%
2 | O=S(=O)(NCCCN1CCN(c2nsc3ccccc23)CC1)c1cccc2scnc12 [Compound 267, N-[3-[4-(1,2-Benzothiazol-3-yl)piperazin-1-yl]propyl]-1,3-benzothiazole-4-sulphonamide] | 91% | 101% | 99% | 95% | 98% | 100% | 97% | 50% | 78% | 99% | 92% | 100% | 13%
3 | O=S(=O)(NCCN1CC=C(c2c[nH]c3ccc(F)cc23)CC1)c1cccc(F)c1 [Compound 439, 3-Fluoro-N-[2-[4-(5-fluoro-1H-indol-3-yl)-3,6-dihydro-2H-pyridin-1-yl]ethyl]benzenesulphonamide] | 93% | 83% | 68% | 92% | 99% | 97% | 27% | 80% | 41% | 95% | 18% | 78% | 16%
4 | O=c1[nH]c2cccc(N3CCN(CCCCNS(=O)(=O)c4cccc5ccccc45)CC3)c2[nH]1 [Compound 418, N-[4-[4-(2-oxo-1,3-dihydrobenzimidazol-4-yl)piperazin-1-yl]butyl]naphthalene-1-sulphonamide] | 5% | 36% | 94% | 5% | 98% | 97% | 98% | 6% | 19% | 99% | 55% | 89% | 4%
5 | Cc1c(S(=O)(=O)NCCCCN2CCC(c3noc4cc(F)ccc34)CC2)sc2ccc(Cl)cc12 [Compound 315, 5-Chloro-N-[4-[4-(6-fluoro-1,2-benzoxazol-3-yl)piperidin-1-yl]butyl]-3-methylbenzothiophene-2-sulphonamide] | 68% | 102% | 93% | 98% | 70% | 99% | −13% | 72% | 78% | 97% | 90% | 98% | 24%
6 | O=S(=O)(NCCCN1CCN(c2nsc3ccccc23)CC1)c1cccc(Cl)c1 [Compound 70, N-[3-[4-(1,2-Benzothiazol-3-yl)piperazin-1-yl]propyl]-3-chlorobenzenesulphonamide] | 82% | 101% | 100% | 99% | 99% | 99% | 96% | 64% | 88% | 101% | 97% | 100% | 25%
7 | O=S(=O)(NCCCCN1CCC(c2noc3cc(F)ccc23)CC1)c1cccs1 [Compound 325, N-[4-[4-(6-Fluoro-1,2-benzoxazol-3-yl)piperidin-1-yl]butyl]thiophene-2-sulphonamide] | 20% | 102% | 93% | 72% | 62% | 96% | 95% | 85% | 49% | 95% | 83% | 98% | 26%
8 | O=S(=O)(NCCCN1CCN(c2nsc3ccccc23)CC1)c1ccc(C(F)(F)F)cc1 [Compound 257, N-[3-[4-(1,2-Benzothiazol-3-yl)piperazin-1-yl]propyl]-4-(trifluoromethyl)benzenesulphonamide] | 93% | 101% | 99% | 94% | 99% | 99% | 94% | 57% | 83% | 100% | 91% | 101% | 12%
9 | O=c1[nH]c2cccc(N3CCN(CCCCNS(=O)(=O)c4ccc5ccccc5c4)CC3)c2[nH]1 [Compound 419, N-[4-[4-(2-oxo-1,3-dihydrobenzimidazol-4-yl)piperazin-1-yl]butyl]naphthalene-2-sulphonamide] | -21% | 52% | 93% | 12% | 98% | 93% | 86% | −14% | 7% | 97% | 12% | 86% | -8%
